Results taken from US20090017003A1, “THIOSULFONATE ANTI-INFLAMMATORY AGENTS” (SULFIDRIS S.R.L., priority 2006, published 2009).

Legend:
[1] = format: in vivo; conditions: male rats, once daily by gavage for three days, diclofenac 10 mg/kg, compound of example 5 14 mg/kg
Method: Thirty male rats (150-200 g) were divided into three groups of 10 animals/group and treated with vehicle, diclofenac (10 mg/kg) and the compound of example 5 (14 mg/kg) for three days once daily by gavage. The vehicle consisted in 1 mL of 0.5% carboxymethylcellulose (CMC). At the fifth day, survival animals were sacrificed, by an overdose of ether, and autopsied to detect any pathological changes, particularly in the gastrointestinal tract. Prostaglandin E2 was evaluated in the liver homogenate by standard enzyme immunoassay procedure as described by Warner T D et al. (J.P.E.T. 2004, 310, 642-7).

superoxide formation = test: Superoxide formation by cultured pulmonary endothelial cells; format: cell-based, porcine
Excerpt: (§1) Effects of the compound prepared in example 4 on superoxide formation, gp91^phox expression by porcine cultured pulmonary endothelial cells and intact cavernosal tissue were studied according to Muzzaffar S. et al. (Br. J. Pharmacol. 2005 September; 146(1):109-17).

gp91^phox = test: gp91phox expression by cultured pulmonary endothelial cells; format: cell-based, porcine; conditions: 16 hr incubation of pig pulmonary artery cells with TNFα
Excerpt: as §1

DU-145 [2] = test: Growth and adhesion to endothelial cells of DU-145 prostate tumour cells in vitro; format: cell-based
Method: (§2) The compound described in example 6 has been tested in vitro on 2 prostate tumour cells (DU-145 and PC-3). […] The activity reported in the literature for the parent compound (valproic acid) on the same tumour cells is achieved at much higher concentrations (1 mM). (Engl. T et al. Life Sciences, 2005).

PC-3 [3] = test: Growth and adhesion to endothelial cells of PC-3 prostate tumour cells in vitro; format: cell-based
Method: as §2

DU-145 [4] = conditions: DU-145 prostate tumour cells; Engl T. et al., Life Sciences 2005; cited from earlier work
PC-3 [5] = conditions: PC-3 prostate tumour cells; Engl T. et al., Life Sciences 2005; cited from earlier work

SMILES: O=C(O)Cc1ccccc1Nc1c(Cl)cccc1Cl [Diclofenac, diclofenac, reference compound]
- % deaths ([1]; 10 animals/group): 40%

SMILES: CCCc1nn(C)c2c(=O)[nH]c(-c3cc(S(=O)(=O)N4CCN(CC(=O)OCCSS(C)(=O)=O)CC4)ccc3OCC)nc12 [Example 4, {4-[4-ethoxy-3-(1-methyl-7-oxo-3-propyl-6,7-dihydro-1H-pyrazolo[4,3-d]pyrimidin-5-yl)-benzenesulfonyl]-piperazin-1-yl}-acetic acid 2-methanesulfonylsulfanyl-ethyl ester]
- inhibition of superoxide formation (superoxide formation; 16 hr incubation of pig pulmonary artery cells with TNFα): potent inhibitor
- inhibition of superoxide formation (superoxide formation; 16 hr incubation of pig pulmonary artery cells with thromboxane A2 analogue U46619): potent inhibitor
- concentration reducing superoxide formation compared with sildenafil citrate (superoxide formation; response to inflammatory mediators): lower concentrations than sildenafil citrate
- inhibition of gp91phox expression (gp91^phox): inhibited

SMILES: CS(=O)(=O)SCCOC(=O)Cc1cccc(Nc2c(Cl)cccc2Cl)c1 [Example 5, [3-(2,6-dichloro-phenylamino)-phenyl]-acetic acid 2-methanesulfonylsulfanyl-ethyl ester]
- % gastrointestinal ulcer ([1]; autopsy at fifth day): 10%

SMILES: CCCC(CCC)C(=O)OCCSS(C)(=O)=O [Example 6, 2-propyl-pentanoic acid 2-methanesulfonylsulfanyl-ethyl ester]
- concentration range inhibiting adhesion to endothelial cells (DU-145 [2]): 5 to 30 µM
- concentration range inhibiting growth (DU-145 [2]): 5 to 30 µM
- concentration range inhibiting adhesion to endothelial cells (PC-3 [3]): 5 to 30 µM
- concentration range inhibiting growth (PC-3 [3]): 5 to 30 µM

SMILES: CCCC(CCC)C(=O)O [valproic acid]
- concentration at which activity is achieved (literature) (DU-145 [4]): 1 mM
- concentration at which activity is achieved (literature) (PC-3 [5]): 1 mM
